According to patent publication US11510993B2, “Antibody drug conjugate for anti-inflammatory applications” (Merck Sharp & Dohme Corp., priority 2015, dated 2022):
Like-named read-outs stand apart in the source and are kept apart here.

Key:
[1] = system: GILZ mRNA in HUT-78 cells (CD74 positive T lymphoma); test: GILZ mRNA induction in HUT-78 cells (RT-PCR); format: cell-based, human; conditions: 18 hours; for Emax: GILZ mRNA relative fold of change; for EC50: Homo sapiens, HuT78, GILZ mRNA, free drug
Method: (§1) In vitro activity and targeted delivery of ADC 12-4, 12-5, 12-6, 12-7, 12-9, 12-10, the isotype-matched negative controls 12-11, 12-12, and naked anti-hCD74 (LL1) control were assessed in HUT-78 an SUDHL-6 cells (CD74 positive T and B lymphoma cell lines respectively) as well as 786-O cells (a CD74 negative renal carcinoma cell line). The cells were treated with individual ADC, anti-hCD74 antibody, or budesonide (Bud) for 18 hours and then glucocorticoid-induced leucine zipper (GILZ) mRNA, a glucocorticoid-regulated gene, was measured by RT-PCR. […] (The activity at the highest concentration in 786-O cells may be due to impurity of the sample or possible low CD74 expression in cells.). The overall activity profile of the ADC is consistent with targeted delivery of a payload (e.g. dexamethasone or budesonide) that is dependent on the binding and internalization of the antibody with its antigen on the cell surface, and on the efficiency of linker cleavage inside the cells.
(§2) The quantitation of Glucocorticoid-induced leucine zipper (GILZ) mRNA expression was determined by real time-PCR. In brief, actively growing cells were harvested and then resuspended in the assay buffer (HBSS plus 2% FBS) at concentration of 1.1×10^6/ml. 5×10^4 cells/well in 45 μl volume were plated to Greiner 384 well v-bottom reagent plates (Ref #781280). […] After 18 hour incubation, the cells were lysed, and the lysates were used for cDNA synthesis and real-time PCR, according to manufacturer's instructions in TaqMan Gene Expression Cells-to-CT™ Kit (Invitrogen, Carlsbad, Calif.). Specific primers against human GILZ and GAPDH were purchased from the Life Technologies (Invitrogen, Carlsbad, Calif.). Real-time PCR reactions were performed on the Applied Biosystems 7900 HT Fast Real-Time PCR System. Thermal cycling conditions consisted of an initial UDG incubation hold (50° C., 2 min) denaturing and enzyme activation step (95° C., 2 min) followed by 40 cycles of denaturing (95° C., 15 s), annealing and extending (60° C., 1 min). The mRNA levels were normalized to GAPDH (internal control) using the formula Δ threshold cycle (CT)=CT target−CT reference. The differential expression signal were expressed as delta Ct (ΔCt) by subtracting the Ct values of the un-stimulated samples (containing only assay buffer or DMSO vehicle) from those of the stimulated samples and expressed as relative fold of change using the formula: 2^ΔΔCT. The graphs were generated in GraphPad Prism and the EC50 values were calculated with non-linear regression curve fit of the data in GraphPad Prism.

[2] = system: GILZ mRNA in SUDHL-6 cells (CD74 positive B lymphoma); test: GILZ mRNA induction in SUDHL-6 cells (RT-PCR); format: cell-based, human; conditions: 18 hours; for Emax: GILZ mRNA relative fold of change; for EC50: Homo sapiens, SU-DHL-6, GILZ mRNA, free drug
Method: as §1, §2

[3] = system: GILZ mRNA in 786-O cells (CD74 negative renal carcinoma); test: GILZ mRNA induction in 786-O cells (RT-PCR); format: cell-based, human; conditions: 786-0 cells (CD74(—)), 18 hours; for Emax: GILZ mRNA relative fold of change; for EC50: Homo sapiens, GILZ mRNA, free drug
Method: as §1, §2

[4] = In vitro stability of drug-linkers in rat liver lysosomal lysate (parent and released dexamethasone, LC-MS/MS); conditions: for Calculated Conc. for dexamethasone rat lysomeal lysate: released dexamethasone
Method: Rat Liver lysosomes were available commercially with a pool of 6 animals. All linker compounds were solubilized in DMSO to form each 10 mM stock solution. Dosing solution for each linker was prepared by serial dilution of each stock solution using 1:3 acetonitrile: water. All solutions were kept on ice during the experiment.
Rat lysosomes were pre-warmed in a 37° C. water bath in an appropriate volume to collect samples over a time course from 0 minutes through 6 hours. Incubating lysosomes were mixed well just prior to sampling to give a homogenous mixture. Aliquots of lysosomes were removed at appropriate time points, added to cold stopping solution, which was methanol containing an appropriate internal standard, and mixed rigorously. The samples were centrifuged at 4000 RPM for 10 minutes after which equal volumes of supernatant were diluted with cold deionized water. The samples were ready for analysis.
(§3) A Thermo LX-2 ultra-performance liquid chromatography system coupled with a Sciex API5000 triple quadrupole mass spectrometer was used for the analysis. The payload and drug-linkers were retained and separated by a C18 column and detected by the mass spectrometer. […] Samples were kept in cold stack set at 5° C.

[5] = In vitro stability of drug-linkers in human whole blood (parent and released dexamethasone, LC-MS/MS); conditions: for Calculated Conc. for dexamethasone in human whole blood: released dexamethasone
Method: General Experimental Procedure Human Blood Incubation Human blood was collected the morning of the experiment from at least 3 individuals using K2EDTA as the anticoagulant. An equal volume from each individual was combined for use in the experiment. The experiment started no more than 2 hours after the blood collection. All drug-linker conjugates were solubilized in DMSO to form each 10 mM stock solution. Dosing solution for each linker was prepared by serial dilution of each stock solution using 1:3 acetonitrile:water. All solutions were kept on ice during the experiment.
Human blood was pre-warmed in a 37° C. water bath in an appropriate volume to collect samples over a time course from 0 through 6 hours. Incubating blood was mixed well just prior to sampling to give a homogenous mixture. Aliquots of blood were removed at appropriate time points, added to cold stopping solution, which was methanol containing an appropriate internal standard, and mixed rigorously. The samples were centrifuged at 4000 RPM for 10 minutes after which equal volumes of the supernatant fractions were diluted with cold deionized water. The samples were then ready for analysis.
as §3

[6] = Solubility of drug-linkers in 20% MeCN/H2O; format: physicochemical; conditions: tested at a concentration of 10 mg/mL
Method: The solubility of exemplary drug-linker conjugates in aqueous solutions was evaluated. Linkers utilized in drug conjugates may have aqueous solubility to enable conjugation in aqueous media amenable to protein solubilization. Furthermore, linkers with aqueous solubility are considered hydrophilic, and may confer to the drug conjugate a reduced propensity to aggregate relative to standard hydrophobic linkers in the literature. The following exemplary drug-linkers were tested in an aqueous solution comprising 20% acetonitrile (MeCN/H2O) for solubility at a concentration of 10 mg/mL.

[7] = not given; remark: listed apart in the source
[8] = Matrix spiking (lysosomes pretreated with stopping reagent)
[9] = Matrix spiking (time 0 sample, blood pretreated with stopping reagent)

CCCC1O[C@@H]2C[C@H]3[C@@H]4CCC5=CC(=O)C=C[C@]5(C)[C@H]4[C@@H](O)C[C@]3(C)[C@]2(C(=O)CO)O1 (stereo partly shown) [Budesonide, budesonide]
Emax [1]: 9.03
EC50 [1]: 0.65 nM
Emax [2]: 14.33
EC50 [2]: 2.21 nM
Emax [3]: 25.68
EC50 [3]: 0.58 nM

C[C@@H]1C[C@H]2[C@@H]3CCC4=CC(=O)C=C[C@]4(C)[C@@]3(F)[C@@H](O)C[C@]2(C)[C@@]1(O)C(=O)CO [Dexamethasone, dexamethasone, reference compound]
Calculated Conc. for each compound in rat lysomal lysate ([4]; 0 m, 37° C.): 1456.4 nM
Calculated Conc. for each compound in rat lysomal lysate ([4]; 5 m, 37° C.): 1851.2 nM
Calculated Conc. for each compound in rat lysomal lysate ([4]; 10 m, 37° C.): 1640.8 nM
Calculated Conc. for each compound in rat lysomal lysate ([4]; 15 m, 37° C.): 1666.7 nM
Calculated Conc. for each compound in rat lysomal lysate ([4]; 30 m, 37° C.): 1602.6 nM
Calculated Conc. for each compound in rat lysomal lysate ([4]; 1 hr, 37° C.): 1576.8 nM
Calculated Conc. for each compound in rat lysomal lysate ([4]; 2 hr, 37° C.): 1681.0 nM
Calculated Conc. for each compound in rat lysomal lysate ([4]; 3 hr, 37° C.): 1689.7 nM
Calculated Conc. for each compound in rat lysomal lysate ([4]; 6 hr, 37° C.): 1689.8 nM
Calculated Conc. for each compound in rat lysomal lysate [4, 8]: 2059.0 nM
Calculated Conc. for each compound in human whole blood ([5]; 0 m, 37° C.): 1687 nM
Calculated Conc. for each compound in human whole blood ([5]; 20 m, 37° C.): 2409 nM
Calculated Conc. for each compound in human whole blood ([5]; 1 hr, 37° C.): 2224 nM
Calculated Conc. for each compound in human whole blood ([5]; 3 hr, 37° C.): 1502 nM
Calculated Conc. for each compound in human whole blood ([5]; 6 hr, 37° C.): 2792 nM
Calculated Conc. for each compound in human whole blood [5, 9]: 2939 nM

C[C@@H]1C[C@H]2[C@@H]3CCC4=CC(=O)C=C[C@]4(C)[C@@]3(F)[C@@H](O)C[C@]2(C)[C@@]1(O)C(=O)COP(=O)(O)OP(=O)(O)OCCNC(=O)COC1C#CCCCCC1 (stereo partly drawn) [Drug Linker 1-4, 2-(2-(cyclooct-2-yn-1-yloxy)acetamido)ethyl(2-((8 S,9R,10S,11S,13 S,14 S,16R,17R)-9-fluoro-11,17-dihydroxy-10,13,16-trimethyl-3-oxo-6,7,8,9,10,11,12,13,14,15,16,17-dodecahydro-3H-cyclopenta[a]phenanthren-17-yl)-2-oxoethyl) dihydrogen pyrophosphate]
Calculated Conc. for each compound in rat lysomal lysate ([4]; 0 m, 37° C.): 1148.2 nM
Calculated Conc. for each compound in rat lysomal lysate ([4]; 5 m, 37° C.): 158.2 nM
Calculated Conc. for each compound in rat lysomal lysate ([4]; 10 m, 37° C.): 19.0 nM
Calculated Conc. for each compound in rat lysomal lysate ([4]; 15 m, 37° C.): 3.7 nM
Calculated Conc. for each compound in rat lysomal lysate [4, 8]: 2487.3 nM
Calculated Conc. for dexamethasone rat lysomeal lysate ([4]; 0 m): 4.7 nM
Calculated Conc. for dexamethasone rat lysomeal lysate ([4]; 5 m): 320.7 nM
Calculated Conc. for dexamethasone rat lysomeal lysate ([4]; 10 m): 559.4 nM
Calculated Conc. for dexamethasone rat lysomeal lysate ([4]; 15 m): 831.7 nM
Calculated Conc. for dexamethasone rat lysomeal lysate ([4]; 30 m): 1059.6 nM
Calculated Conc. for dexamethasone rat lysomeal lysate ([4]; 1 hr): 1148.8 nM
Calculated Conc. for dexamethasone rat lysomeal lysate ([4]; 2 hr): 854.5 nM
Calculated Conc. for dexamethasone rat lysomeal lysate ([4]; 3 hr): 841.9 nM
Calculated Conc. for dexamethasone rat lysomeal lysate ([4]; 6 hr): 826.6 nM
Measured Solubility in 20% MeCN/H2O [6]: >10000 µg/mL
Calculated Conc. for each compound in human whole blood ([5]; 0 m, 37° C.): 1617 nM
Calculated Conc. for each compound in human whole blood ([5]; 1 hr, 37° C.): 1421 nM
Calculated Conc. for each compound in human whole blood ([5]; 6 hr, 37° C.): 1400 nM
Calculated Conc. for each compound in human whole blood [5, 9]: 3059 nM
Calculated Conc. for dexamethasone in human whole blood ([5]; 0 m): 0 nM
Calculated Conc. for dexamethasone in human whole blood ([5]; 1 hr): 0 nM
Calculated Conc. for dexamethasone in human whole blood ([5]; 6 hr): 0 nM
Calculated Conc. for dexamethasone in human whole blood ([5]; Matrix Spiking): 2 nM

C[C@@H]1C[C@H]2[C@@H]3CCC4=CC(=O)C=C[C@]4(C)[C@@]3(F)[C@@H](O)C[C@]2(C)[C@@]1(O)C(=O)COP(=O)(O)OCCNC(=O)COC1C#CCCCCC1 (stereo partly drawn) [Drug Linker 4-3, 2-(2-(cyclooct-2-yn-1-yloxy)acetamido)ethyl (2-((8S,9R,10S,11S,13S,14S,16R,17R)-9-fluoro-11,17-dihydroxy-10,13,16-trimethyl-3-oxo-6,7,8,9,10,11,12,13,14,15,16,17-dodecahydro-3H-cyclopenta[a]phenanthren-17-yl)-2-oxoethyl) hydrogen phosphate]
Calculated Conc. for each compound in human whole blood (0 min): 1539 nM
Calculated Conc. for dexamethasone in human whole blood (20 min): 0 nM
Calculated Conc. for each compound in human whole blood (20 min): 1861 nM
Calculated Conc. for dexamethasone in human whole blood (1 h): 0 nM
Calculated Conc. for each compound in human whole blood (1 h): 1619 nM
Calculated Conc. for dexamethasone in human whole blood (3 h): 1 nM
Calculated Conc. for each compound in human whole blood (3 h): 1677 nM
Calculated Conc. for dexamethasone in human whole blood (6 h): 3 nM
Calculated Conc. for each compound in human whole blood (6 h): 2040 nM
rate of dexamethasone release in rat lysosomal extract (in words) ([4]; compared with 3-4, 5-3 releasing faster than 4-3): more slowly released
Calculated Conc. for dexamethasone rat lysomeal lysate ([7]; 0 min): 0.9 nM
Calculated Conc. for each compound in rat lysomal lysate ([7]; 0 min): 888.8 nM
Calculated Conc. for dexamethasone rat lysomeal lysate ([7]; 5 min): 14.5 nM
Calculated Conc. for each compound in rat lysomal lysate ([7]; 5 min): 1156.1 nM
Calculated Conc. for dexamethasone rat lysomeal lysate ([7]; 10 min): 14.2 nM
Calculated Conc. for each compound in rat lysomal lysate ([7]; 10 min): 983.4 nM
Calculated Conc. for dexamethasone rat lysomeal lysate ([7]; 15 min): 22.3 nM
Calculated Conc. for each compound in rat lysomal lysate ([7]; 15 min): 1032.6 nM
Calculated Conc. for dexamethasone rat lysomeal lysate ([7]; 30 min): 28.9 nM
Calculated Conc. for each compound in rat lysomal lysate ([7]; 30 min): 980.1 nM
Calculated Conc. for dexamethasone rat lysomeal lysate ([7]; 1 h): 41.6 nM
Calculated Conc. for each compound in rat lysomal lysate ([7]; 1 h): 882.4 nM
Calculated Conc. for dexamethasone rat lysomeal lysate ([7]; 2 h): 72.5 nM
Calculated Conc. for each compound in rat lysomal lysate ([7]; 2 h): 880.1 nM
Calculated Conc. for dexamethasone rat lysomeal lysate ([7]; 3 h): 90.2 nM
Calculated Conc. for each compound in rat lysomal lysate ([7]; 3 h): 903.8 nM
Calculated Conc. for dexamethasone rat lysomeal lysate ([7]; 6 h): 141.9 nM
Calculated Conc. for each compound in rat lysomal lysate ([7]; 6 h): 858.9 nM

CCC(=O)O[C@]1(C(=O)SCF)[C@H](C)C[C@H]2[C@@H]3C[C@H](F)C4=CC(=O)C=C[C@]4(C)[C@@]3(F)[C@@H](O)C[C@@]21C [Fluticasone Propionate, fluticasone propionate]
Emax [1]: 10.27
EC50 [1]: 0.45 nM
Emax [2]: 15.78
EC50 [2]: 0.52 nM
Emax [3]: 25.38
EC50 [3]: 0.46 nM

CD74 Ab: anti-CD74 antibody LL1, HC SEQ ID NO:69, LC SEQ ID NO:73, pAzF at position 121
Emax [1]: 1.34
Emax [2]: 1.02
Emax [3]: 1.02
